# Test results taken from patent publication US20160122320A1, “USEFUL COMBINATIONS OF MONOBACTAM ANTIBIOTICS WITH BETA-LACTAMASE INHIBITORS” (Basilea Pharmaceutica AG, priority 2005, published 2016).
# Several values for one entry are separate records, joined by “and”; a condition that tells them apart may be missing. Identical values can stand only once. Counter-ions that a name gives are not always drawn.
# Experiments:
# Experiment in all cases: MIC, NCCLS broth microdilution
# Type in all cases: cell-based
# Conditions in all cases: for MIC of antibiotic at fixed inhibitor concentration (4 mg/L): MIC of antibiotic compound 1 with the labelled bridged monobactam of formula II and clavulanate, 4 mg/L each; for MIC of antibiotic: antibiotic alone, no inhibitor
# [1] = system: Acinetobacter sp. J2
# [2] = system: Pseudomonas aeruginosa MK1184
# [3] = system: Pseudomonas aeruginosa 1973E
# Procedure: Antimicrobial activity of the compounds and of their combinations was determined against a selection of organisms according to the standard procedures described by the National Committee for Clinical Laboratory Standards (National Committee for Clinical Laboratory. Standards (2000). Methods for Dilution Antimicrobial Susceptibility Tests for Bacteria That Grow Aerobically-Fifth Edition: Approved Standard M7-A5. NCCLS, Wayne, Pa., USA).
# In all cases the final concentration of DMSO incubated with the bacteria is less than or equal to 1%. […] Plates were incubated overnight at an appropriate temperature (30° C. or 37° C.) and optical densities assessed by eye. The MIC value is defined as the lowest compound concentration completely inhibiting visible growth of the test organism. When combinations between compounds of formula I with compounds of formula II and are evaluated the compounds of formula I are tested in dilution series as described above while the compounds of formula II and III-XIII were present in all wells at a constant concentration of 4 μg/mL each.
# [4] = system: Enterobacter cloacae P99
# [5] = system: Klebsiella pneumoniae CF104
# [6] = system: Serratia marcescens S6
# [7] = system: Stenotrophomonas malthophilia 1AC736
# [8] = Stenotrophomonas malthophilia 1AC736
# [9] = Stenotrophomonas maltophilia 1AC736
structure (smiles),measurement,setting,value
O=C(Nc1ccc(O)cc1)N1CC[C@@H]2[C@H]1C(=O)N2S(=O)(=O)[O-].[Na+] [Compound 316],MIC of antibiotic at fixed inhibitor concentration (4 mg/L),[1]; Acinetobacter sp. J2,16 mg/L
same,MIC of antibiotic at fixed inhibitor concentration (4 mg/L),[2],32 mg/L
same,MIC of antibiotic at fixed inhibitor concentration (4 mg/L),[3],4 mg/L
same,MIC of antibiotic at fixed inhibitor concentration (4 mg/L),[4],8 mg/L
same,MIC of antibiotic at fixed inhibitor concentration (4 mg/L),[5],0.5 mg/L
same,MIC of antibiotic at fixed inhibitor concentration (4 mg/L),[6],0.25 mg/L
same,MIC of antibiotic at fixed inhibitor concentration (4 mg/L),[7]; [8],0.125 mg/L
"CCOC(=O)Cc1ccc[n+](CC(=O)N2CC[C@@H]3[C@H]2C(=O)N3S(=O)(=O)[O-])c1 [Compound 119, (1S,5R)-2-(2-{3-[(ethoxycarbonyl)methyl]pyridinium}acetyl)-7-oxo-2,6-diazabicyclo[3.2.0]heptane-6-sulfonate, inner salt]",MIC of antibiotic at fixed inhibitor concentration (4 mg/L),[1]; Acinetobacter sp. J2,>32 mg/L
same,MIC of antibiotic at fixed inhibitor concentration (4 mg/L),[2],32 mg/L
same,MIC of antibiotic at fixed inhibitor concentration (4 mg/L),[3],4 mg/L
same,MIC of antibiotic at fixed inhibitor concentration (4 mg/L),[4],>32 mg/L
same,MIC of antibiotic at fixed inhibitor concentration (4 mg/L),[5],0.125 mg/L
same,MIC of antibiotic at fixed inhibitor concentration (4 mg/L),[6],0.25 mg/L
same,MIC of antibiotic at fixed inhibitor concentration (4 mg/L),[7]; [8],0.125 mg/L
"C[C@H]1[C@H](NC(=O)/C(=N\OCc2cc(=O)c(O)cn2O)c2csc(N)n2)C(=O)N1OCC(=O)O [Compound 22, 2-((3S,4S)-3-{(2Z)-2-(2-amino(1,3-thiazol-4-yl))-3-[(1,5-dihydroxy-4-oxo(2-hydropyridyl))methoxy]-3-azaprop-2-enoylamino}-4-methyl-2-oxoazetidinyloxy)acetic acid]",MIC of antibiotic,[1]; Acinetobacter baumannii J2,>32 mg/L
same,MIC of antibiotic at fixed inhibitor concentration of 4 mg/L,"[1]; Acinetobacter baumannii J2, with 102 and clavulanate",4 mg/L
same,MIC of antibiotic at fixed inhibitor concentration of 4 mg/L,"[1]; Acinetobacter baumannii J2, with 324 and clavulanate",8 mg/L
same,MIC of antibiotic at fixed inhibitor concentration of 4 mg/L,"[1]; Acinetobacter baumannii J2, with 324 and sulbactam",2 mg/L
same,MIC of antibiotic,[2],8 mg/L
same,MIC of antibiotic at fixed inhibitor concentration of 4 mg/L,[2]; with 102 and clavulanate,4 mg/L
same,MIC of antibiotic at fixed inhibitor concentration of 4 mg/L,[2]; with 324 and clavulanate,4 mg/L
same,MIC of antibiotic at fixed inhibitor concentration of 4 mg/L,[2]; with 324 and sulbactam,4 mg/L
same,MIC of antibiotic,[3],4 mg/L
same,MIC of antibiotic at fixed inhibitor concentration of 4 mg/L,[3]; with 102 and clavulanate,4 mg/L
same,MIC of antibiotic at fixed inhibitor concentration of 4 mg/L,[3]; with 324 and clavulanate,4 mg/L
same,MIC of antibiotic at fixed inhibitor concentration of 4 mg/L,[3]; with 324 and sulbactam,4 mg/L
same,MIC of antibiotic,[4],>32 mg/L
same,MIC of antibiotic at fixed inhibitor concentration of 4 mg/L,[4]; with 102 and clavulanate,8 mg/L
same,MIC of antibiotic at fixed inhibitor concentration of 4 mg/L,[4]; with 324 and clavulanate,4 mg/L
same,MIC of antibiotic at fixed inhibitor concentration of 4 mg/L,[4]; with 324 and sulbactam,4 mg/L
same,MIC of antibiotic,[5],>32 mg/L
same,MIC of antibiotic at fixed inhibitor concentration of 4 mg/L,[5]; with 102 and clavulanate,0.25 mg/L
same,MIC of antibiotic at fixed inhibitor concentration of 4 mg/L,[5]; with 324 and clavulanate,0.25 mg/L
same,MIC of antibiotic at fixed inhibitor concentration of 4 mg/L,[5]; with 324 and sulbactam,4 mg/L
same,MIC of antibiotic,[6],0.13 mg/L
same,MIC of antibiotic at fixed inhibitor concentration of 4 mg/L,[6]; with 102 and clavulanate,0.25 mg/L
same,MIC of antibiotic at fixed inhibitor concentration of 4 mg/L,[6]; with 324 and clavulanate,0.13 mg/L
same,MIC of antibiotic at fixed inhibitor concentration of 4 mg/L,[6]; with 324 and sulbactam,0.13 mg/L
same,MIC of antibiotic,[7]; [9],0.5 mg/L
same,MIC of antibiotic at fixed inhibitor concentration of 4 mg/L,"[7]; Stenotrophomonas maltophilia 1AC736, with 102 and clavulanate",1 mg/L
same,MIC of antibiotic at fixed inhibitor concentration of 4 mg/L,"[7]; Stenotrophomonas maltophilia 1AC736, with 324 and clavulanate",1 mg/L
same,MIC of antibiotic at fixed inhibitor concentration of 4 mg/L,"[7]; Stenotrophomonas maltophilia 1AC736, with 324 and sulbactam",1 mg/L
"O=C(Nc1cccc(CO)c1)N1CC[C@@H]2[C@H]1C(=O)N2S(=O)(=O)[O-].[Na+] [Compound 321, Sodium(1S,5R)-2-{N-[3-(hydroxymethyl)phenyl]carbamoyl}-7-oxo-2,6-diazabicyclo[3.2.0]heptane-6-sulfonate]",MIC of antibiotic at fixed inhibitor concentration (4 mg/L),[1]; Acinetobacter sp. J2,16 mg/L
same,MIC of antibiotic at fixed inhibitor concentration (4 mg/L),[2],>32 mg/L
same,MIC of antibiotic at fixed inhibitor concentration (4 mg/L),[3],4 mg/L
same,MIC of antibiotic at fixed inhibitor concentration (4 mg/L),[4],>32 mg/L
same,MIC of antibiotic at fixed inhibitor concentration (4 mg/L),[5],1 mg/L
same,MIC of antibiotic at fixed inhibitor concentration (4 mg/L),[6],0.25 mg/L
same,MIC of antibiotic at fixed inhibitor concentration (4 mg/L),[7]; [8],0.125 mg/L
"C[C@@H](O)[C@H]1C(=O)N2C(C(=O)O)=C(S[C@@H]3CN[C@H](C(=O)N(C)C)C3)[C@H](C)[C@H]12 [Meropenem, meropenem, reference compound]",MIC of antibiotic,[1]; Acinetobacter baumannii J2,2 mg/L
same,MIC of antibiotic,[1]; Acinetobacter sp. J2,2 mg/L
same,MIC of antibiotic,[2],2 mg/L
same,MIC of antibiotic,[3],1 mg/L
same,MIC of antibiotic,[4],0.13 mg/L and 0.125 mg/L
same,MIC of antibiotic,[5],<0.06 mg/L
same,MIC of antibiotic,[6],16 mg/L
same,MIC of antibiotic,[7]; [8],32 mg/L
same,MIC of antibiotic,[7]; [9],32 mg/L
"CCC(=O)c1cc[n+](CC(=O)N2CC[C@@H]3[C@H]2C(=O)N3S(=O)(=O)[O-])cc1 [Compound 117, (1S,5R)-7-oxo-2-[2-(4-propanoylpyridinium)acetyl]-2,6-diazabicyclo[3.2.0]heptane-6-sulfonate, inner salt]",MIC of antibiotic at fixed inhibitor concentration (4 mg/L),[1]; Acinetobacter sp. J2,>32 mg/L
same,MIC of antibiotic at fixed inhibitor concentration (4 mg/L),[2],16 mg/L
same,MIC of antibiotic at fixed inhibitor concentration (4 mg/L),[3],4 mg/L
same,MIC of antibiotic at fixed inhibitor concentration (4 mg/L),[4],32 mg/L
same,MIC of antibiotic at fixed inhibitor concentration (4 mg/L),[5],0.125 mg/L
same,MIC of antibiotic at fixed inhibitor concentration (4 mg/L),[6],0.25 mg/L
same,MIC of antibiotic at fixed inhibitor concentration (4 mg/L),[7]; [8],0.25 mg/L
